Data published in paper PMC7381729, “A new class of PentixaFor- and PentixaTher-based theranostic agents with enhanced CXCR4-targeting efficiency” (Theranostics, 2020).
Where two headings read alike, the source gives them in different places. Where a SMILES comes first, the peptide text is derived from it. Side-chain parts run from the residue outwards. [ ]: non-standard residue; d: D form. The star is where a group is joined. DOTA = O=C(O)CN1CCN(CC(=O)O)CCN(CC(=O)*)CCN(CC(=O)O)CC1; 2Nal = N[C@@H](Cc1ccc2ccccc2c1)C(=O)O; dNMeOrn = CN[C@H](CCCN)C(=O)O; 4Abz = Nc1ccc(C(=O)O)cc1

Columns and labels:
[1] = Biodistribution in Daudi xenograft bearing mice; type: in vivo, mouse; conditions: female, CB-17 SCID, mouse, iv, total radioactivity, 1h p.i., means ± SD
How it was run: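 Female CB-17 SCID mice with Daudi xenografts (n=4-5) received 5-10 MBq (0.08-0.11 nmol) ^68Ga- or ^177Lu-labelled ligand i.v.; blocking by coinjected 50 µg AMD3100. Organs counted by γ-counter at 1, 6 and 48 h p.i.; %ID/g (mean ± SD).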

[2] = Small animal PET imaging in Daudi xenograft bearing mice; type: in vivo; conditions: CB17 SCID, mouse, iv, total radioactivity, 90 min p.i., dynamic PET, ROI analysis, n=1 per compound
Procedure: Small aminal PET imaging studies were performed using a Siemens Inveon PET scanner. Animals were anesthetized with isoflurane and injected via the tail vein with 10 to 15 MBq (0.1 nmol) of the respective tracer. Dynamic imaging (n=1 per compound) was performed after on-bed injection for 1.5 h, and static images (n=1 per compound) were acquired at 1 h p.i. with an acquisition time of 15 min. Data analysis was performed using the Inveon Research Workplace software. Images were reconstructed using a 3D ordered-subsets expectation maximum (OSEM3D) algorithm without scanner and attenuation correction. Time-activity curves (Figure 4) were obtained by generating isocontour regions of interest (ROI) for the tumor and the heart content (as a surrogate for blood activity), as well as by defining two spherical ROIs (each 23.4 mm^3) in the thigh area (muscle) and areas of homogenous tracer uptake in the liver, followed by plotting of average activity ± SD per volume in these ROIs over time.  Figure 4 Results from small animal PET imaging using [^68Ga]PentixaFor (top row), [^68Ga]DOTA-r-a-ABA-CPCR4 (middle row) and [^68Ga]DOTA-r-a-ABA-iodoCPCR4 (bottom row) in Daudi xenograft bearing CB17 SCID mice. Images on the left (MIP) were obtained by static imaging (1h p.i., n=1), the time activity curves (TAC) on the right were acquired by dynamic PET imaging (0-90 min p.i., n=1).

SMILES: C[C@@H](NC(=O)[C@@H](CCCNC(=N)N)NC(=O)CN1CCN(CC(=O)O)CCN(CC(=O)O)CCN(CC(=O)O)CC1)C(=O)Nc1ccc(C(=O)NCCC[C@@H]2C(=O)N[C@@H](CCCNC(=N)N)C(=O)N[C@@H](Cc3ccc4ccccc4c3)C(=O)NCC(=O)N[C@H](Cc3ccc(O)cc3)C(=O)N2C)cc1 [[^68Ga]DOTA-r-a-ABA-CPCR4, metal not drawn] (cyclo([2Nal]G[dY][dNMeOrn]([4Abz-dA-dR-DOTA])R))
- tissue uptake at 1 h ([1]; adrenals, tracer only, i.v., γ-counter, n=4-5 (68Ga: n=4), read-out: Biodistribution adrenals): 1.9 ± 1.14 %ID/g
- tissue uptake at 1 h ([1]; adrenals, with AMD3100, 50 µg per animal, coinjected (CXCR4 competition), coinjection of 50 µg AMD3100/animal, n=3, read-out: Biodistribution adrenals, competition with AMD3100): 1.02 ± 0.27 %ID/g
- tissue uptake at 1 h ([1]; blood, with AMD3100, 50 µg per animal, coinjected (CXCR4 competition), coinjection of 50 µg AMD3100/animal, n=3, read-out: Biodistribution blood, competition with AMD3100): 2.98 ± 0.57 %ID/g
- tissue uptake at 1 h ([1]; colon, tracer only, i.v., γ-counter, n=4-5 (68Ga: n=4), read-out: Biodistribution colon): 0.67 ± 0.13 %ID/g
- tissue uptake at 1 h ([1]; colon, with AMD3100, 50 µg per animal, coinjected (CXCR4 competition), coinjection of 50 µg AMD3100/animal, n=3, read-out: Biodistribution colon, competition with AMD3100): 0.47 ± 0.09 %ID/g
- tissue uptake at 1 h ([1]; femur, tracer only, i.v., γ-counter, n=4-5 (68Ga: n=4), read-out: Biodistribution femur): 1.27 ± 0.32 %ID/g
- tissue uptake at 1 h ([1]; femur, with AMD3100, 50 µg per animal, coinjected (CXCR4 competition), coinjection of 50 µg AMD3100/animal, n=3, read-out: Biodistribution femur, competition with AMD3100): 0.74 ± 0.11 %ID/g
- tissue uptake at 1 h ([1]; heart, tracer only, i.v., γ-counter, n=4-5 (68Ga: n=4), read-out: Biodistribution heart): 1.51 ± 0.25 %ID/g
- tissue uptake at 1 h ([1]; heart, with AMD3100, 50 µg per animal, coinjected (CXCR4 competition), coinjection of 50 µg AMD3100/animal, n=3, read-out: Biodistribution heart, competition with AMD3100): 1.37 ± 0.33 %ID/g
- tissue uptake at 1 h ([1]; kidney, tracer only, i.v., γ-counter, n=4-5 (68Ga: n=4), read-out: Biodistribution kidney): 11.5 ± 3.58 %ID/g
- tissue uptake at 1 h ([1]; kidney, with AMD3100, 50 µg per animal, coinjected (CXCR4 competition), coinjection of 50 µg AMD3100/animal, n=3, read-out: Biodistribution kidney, competition with AMD3100): 7.16 ± 1.62 %ID/g
- tissue uptake at 1 h ([1]; liver, with AMD3100, 50 µg per animal, coinjected (CXCR4 competition), coinjection of 50 µg AMD3100/animal, n=3, read-out: Biodistribution liver, competition with AMD3100): 4.62 ± 0.56 %ID/g
- tissue uptake at 1 h ([1]; lung, tracer only, i.v., γ-counter, n=4-5 (68Ga: n=4), read-out: Biodistribution lung): 3.15 ± 0.5 %ID/g
- tissue uptake at 1 h ([1]; lung, with AMD3100, 50 µg per animal, coinjected (CXCR4 competition), coinjection of 50 µg AMD3100/animal, n=3, read-out: Biodistribution lung, competition with AMD3100): 3.12 ± 0.57 %ID/g
- tissue uptake at 1 h ([1]; muscle, tracer only, i.v., γ-counter, n=4-5 (68Ga: n=4), read-out: Biodistribution muscle): 0.45 ± 0.05 %ID/g
- tissue uptake at 1 h ([1]; muscle, with AMD3100, 50 µg per animal, coinjected (CXCR4 competition), coinjection of 50 µg AMD3100/animal, n=3, read-out: Biodistribution muscle, competition with AMD3100): 0.4 ± 0.11 %ID/g
- tissue uptake at 1 h ([1]; pancreas, tracer only, i.v., γ-counter, n=4-5 (68Ga: n=4), read-out: Biodistribution pancreas): 0.68 ± 0.01 %ID/g
- tissue uptake at 1 h ([1]; pancreas, with AMD3100, 50 µg per animal, coinjected (CXCR4 competition), coinjection of 50 µg AMD3100/animal, n=3, read-out: Biodistribution pancreas, competition with AMD3100): 0.69 ± 0.07 %ID/g
- tissue uptake at 1 h ([1]; small intestine, tracer only, i.v., γ-counter, n=4-5 (68Ga: n=4), read-out: Biodistribution small intestine): 0.94 ± 0.13 %ID/g
- tissue uptake at 1 h ([1]; small intestine, with AMD3100, 50 µg per animal, coinjected (CXCR4 competition), coinjection of 50 µg AMD3100/animal, n=3, read-out: Biodistribution small intestine, competition with AMD3100): 0.94 ± 0.31 %ID/g
- tissue uptake at 1 h ([1]; spleen, tracer only, i.v., γ-counter, n=4-5 (68Ga: n=4), read-out: Biodistribution spleen): 2.01 ± 0.19 %ID/g
- tissue uptake at 1 h ([1]; spleen, with AMD3100, 50 µg per animal, coinjected (CXCR4 competition), coinjection of 50 µg AMD3100/animal, n=3, read-out: Biodistribution spleen, competition with AMD3100): 2.38 ± 0.23 %ID/g
- tissue uptake at 1 h ([1]; stomach, tracer only, i.v., γ-counter, n=4-5 (68Ga: n=4), read-out: Biodistribution stomach): 1.2 ± 0.1 %ID/g
- tissue uptake at 1 h ([1]; stomach, with AMD3100, 50 µg per animal, coinjected (CXCR4 competition), coinjection of 50 µg AMD3100/animal, n=3, read-out: Biodistribution stomach, competition with AMD3100): 0.97 ± 0.32 %ID/g
- tissue uptake at 1 h ([1]; tumor (Daudi xenograft), tracer only, i.v., γ-counter, n=4-5 (68Ga: n=4), read-out: Biodistribution tumor (Daudi xenograft)): 11.7 ± 1.31 %ID/g
- tissue uptake at 1 h ([1]; tumor (Daudi xenograft), with AMD3100, 50 µg per animal, coinjected (CXCR4 competition), coinjection of 50 µg AMD3100/animal, n=3, read-out: Biodistribution tumor, competition with AMD3100): 2.52 ± 0.36 %ID/g
- tissue uptake per volume at 1.5 h ([2]; kidney, read-out: Kidney uptake in PET): 9.4 ± 0.2 %ID/mL
- tissue uptake per volume at 1.5 h ([2]; liver, average ± SD per volume in ROI, read-out: Liver uptake in PET): 6 ± 0.2 %ID/mL
- tissue uptake per volume at 1.5 h ([2]; tumor (Daudi xenograft), Daudi xenograft, read-out: Tumor accumulation in PET): 12 ± 0.7 %ID/mL
